Laboratory results published in paper doi:10.1101/2021.10.07.463234v2 (biorxiv, 2021).
Where a name gives a salt, the structure may show the parent alone. Bridge positions count the residues as written; N and C are the ends. Square brackets hold non-standard residues; d marks the D form. Peptide text beside a SMILES is read from it. * marks the point of attachment. Ileψ(thiazoline)Cys = CC[C@H](C)[C@H](N)C1=N[C@H](C(=O)*)CS1; dOrn = NCCC[C@@H](N)C(=O)O

These molecules were tested against SARS-CoV-2 Mac1 (Severe acute respiratory syndrome coronavirus 2, UniProt P0DTD1) (assay: biochemical). Details: 100 µM; inhibitor.
`COCCCN1CCC(NC(=O)c2cc(Cl)c(N)c3c2OCC3)CC1` [Prucalopride] was tested, and the “%inhibition” value was 8.754%.
For `Fc1ccc([C@@H]2CCNC[C@H]2COc2ccc3c(c2)OCO3)cc1` [Paroxetine mesylate], the “%inhibition” value was 0%.
`CNC(=O)c1cc(Oc2ccc(NC(=O)Nc3ccc(Cl)c(C(F)(F)F)c3)c(F)c2)ccn1` [Regorafenib Monohydrate] was tested, and the “%inhibition” value was 0%.
`COc1ccc2cc3[n+](cc2c1OC)CCc1cc2c(cc1-3)OCO2` [Berberine Sulfate] was tested, and the “%inhibition” value was 0%.
In the case of `CN1[C@@H]2CCC[C@H]1C[C@@H](NC(=O)c1nn(C)c3ccccc13)C2` [Granisetron HCl], the “%inhibition” value is reported as 0%.
For `CCN1CCN(Cc2ccc(Nc3ncc(F)c(-c4cc(F)c5nc(C)n(C(C)C)c5c4)n3)nc2)CC1` [abemaciclib (LY2835219)], the “%inhibition” value was 4.001%.
In the case of `COc1ccc(C[C@@H](C)NC[C@H](O)c2ccc(O)c(NC=O)c2)cc1` (racemic) [Formoterol Hemifumarate], the “%inhibition” value is reported as 0%.
In the case of `CN(CCOc1ccc(CC2SC(=O)NC2=O)cc1)c1ccccn1` (stereo not shown) [Rosiglitazone HCl], the “%inhibition” value is reported as 0%.
In the case of `C#Cc1cccc(Nc2ncnc3cc(OCCOC)c(OCCOC)cc23)c1` [Erlotinib], the “%inhibition” value is reported as 10.85%.

Same assay, conditions: read-out: %inhibition
With `CCCc1cc(C(N)=S)ccn1` [Protionamide] the inhibition at 100 µM was 50.9%.
Work on `CC1(C)O[C@@H]2C[C@H]3[C@@H]4CCC5=CC(=O)C=C[C@]5(C)[C@@]4(F)[C@@H](O)C[C@]3(C)[C@]2(C(=O)CO)O1` [Triamcinolone Acetonide] yielded an inhibition at 100 µM of 0%.
`CCCCCCCC(=O)N[C@H](CN1CCCC1)[C@H](O)c1ccc2c(c1)OCCO2` [Eliglustat] was tested, and the inhibition at 100 µM was 2.49%.
`CCCNC(C)C(=O)Nc1c(C)csc1C(=O)OC` (stereo not shown) [Articaine HCl] was tested, and the inhibition at 100 µM was 0%.
Molecule `N[C@@H](Cc1c[nH]c2ccc(O)cc12)C(=O)O` [5-hydroxytryptophan (5-HTP)] has an inhibition at 100 µM of 0%.
With `O=C(O)CCCN1CCC(O[C@@H](c2ccc(Cl)cc2)c2ccccn2)CC1` [Bepotastine Besilate] the inhibition at 100 µM was 15%.
`Cc1cn([C@H]2C=C[C@@H](CO)O2)c(=O)[nH]c1=O` [Stavudine (d4T)] showed an inhibition at 100 µM of 0%.
`O=C1NC(=O)C(c2ccccc2)(c2ccccc2)N1` [Phenytoin] was tested, and the inhibition at 100 µM was 14.7%.
For `CC[C@]1(O)C[C@H]2CN(CCc3c([nH]c4ccccc34)[C@@](C(=O)OC)(c3cc4c(cc3OC)N(C=O)[C@H]3[C@@](O)(C(=O)OC)[C@H](OC(C)=O)[C@]5(CC)C=CCN6CC[C@]43[C@@H]65)C2)C1` [Vincristine sulfate], the inhibition at 100 µM was 42.2%.
In the case of `CCCCS(=O)(=O)N[C@@H](Cc1ccc(OCCCCC2CCNCC2)cc1)C(=O)O` [Tirofiban Hydrochloride], the inhibition at 100 µM is reported as 9.42%.
`CC(C)(C)C(=O)Oc1ccc(S(=O)(=O)Nc2ccccc2C(=O)NCC(=O)O)cc1` [Sivelestat (ONO-5046)] showed an inhibition at 100 µM of 0%.
For `CC[C@H](C)[C@H](N)C1=N[C@H](C(=O)N[C@@H](CC(C)C)C(=O)N[C@H](CCC(=O)O)C(=O)N[C@H](C(=O)N[C@H]2CCCCNC(=O)[C@H](CC(N)=O)NC(=O)[C@@H](CC(=O)O)NC(=O)[C@H](Cc3cnc[nH]3)NC(=O)[C@@H](Cc3ccccc3)NC(=O)[C@H]([C@@H](C)CC)NC(=O)[C@@H](CCCN)NC2=O)[C@@H](C)CC)CS1` [Bacitracin] ({Ileψ(thiazoline)Cys}-L[dE]IK[dOrn]I[dF]H[dD]N; lactam 4-C), the inhibition at 100 µM was 0%.
In the case of `C[C@@H](c1ncncc1F)[C@](O)(Cn1cncn1)c1ccc(F)cc1F` [Voriconazole], the inhibition at 100 µM is reported as 0%.
`COCCCOc1cc(C[C@@H](C[C@H](N)[C@@H](O)C[C@H](C(=O)NCC(C)(C)C(N)=O)C(C)C)C(C)C)ccc1OC` [Aliskiren Hemifumarate] showed an inhibition at 100 µM of 0%.
Work on `COc1ncc(-c2ccc3nccc(-c4ccnnc4)c3c2)cc1NS(=O)(=O)c1ccc(F)cc1F` [Omipalisib (GSK2126458, GSK458)] yielded an inhibition at 100 µM of 7.47%.
In the case of `CCc1cc2c(cc1N1CCC(N3CCOCC3)CC1)C(C)(C)c1[nH]c3cc(C#N)ccc3c1C2=O` [Alectinib hydrochloride], the inhibition at 100 µM is reported as 9.69%.
Work on `C[N+](C)(C)CCCCCC[N+](C)(C)C` [Hexamethonium?Dibromide] yielded an inhibition at 100 µM of 0%.
`NCCc1ccc(O)c(O)c1` [Dopamine HCl] gave an inhibition at 100 µM of 39.1%.
Molecule `Nc1ccc(O)c(C(=O)O)c1` [Mesalamine] has an inhibition at 100 µM of 0%.
Work on `C/C=C1\[C@H]2C=C(C)C[C@]1(N)c1ccc(=O)[nH]c1C2` [(-)-Huperzine A (HupA)] yielded an inhibition at 100 µM of 0%.
`Oc1cc(Cl)ccc1Oc1ccc(Cl)cc1Cl` [Triclosan] was tested, and the inhibition at 100 µM was 0%.
For `CC(=O)OCC(=O)[C@@]1(O)CC[C@H]2[C@@H]3CCC4=CC(=O)CC[C@]4(C)[C@H]3[C@@H](O)C[C@@]21C` [Hydrocortisone acetate], the inhibition at 100 µM was 0%.
`C[N+](C)(C)CC(O)CC(=O)[O-]` (racemic) [DL-Carnitine HCl] showed an inhibition at 100 µM of 0%.
In the case of `O=C(NCCN1CCOCC1)c1ccc(Cl)cc1` [Moclobemide (Ro 111163)], the inhibition at 100 µM is reported as 0%.
For `O=C1NCC2(CCN(CCc3ccccc3)CC2)O1` [Fenspiride HCl], the inhibition at 100 µM was 26.5%.
Work on `CC1=C(/C=C/C(C)=C/C=C/C(C)=C/C=C/C=C(C)/C=C/C=C(C)/C=C/C2=C(C)CCCC2(C)C)C(C)(C)CCC1` [Beta Carotene] yielded an inhibition at 100 µM of 7.3%.
`CC1(C)O[C@@H]2[C@@H](CO[C@@]3(COS(N)(=O)=O)OC(C)(C)O[C@@H]23)O1` [Topiramate] showed an inhibition at 100 µM of 0%.
`CC[C@H](C)C[C@H](C)CCCCCCCCC(=O)N[C@H]1C[C@@H](O)[C@@H](NCCN)NC(=O)[C@@H]2[C@@H](O)CCN2C(=O)[C@H]([C@H](O)CCN)NC(=O)[C@H]([C@H](O)[C@@H](O)c2ccc(O)cc2)NC(=O)[C@@H]2C[C@@H](O)CN2C(=O)[C@H]([C@@H](C)O)NC1=O` [Caspofungin Acetate] was tested, and the inhibition at 100 µM was 0%.
Work on `Nc1nc2c(ncn2COC(CO)CO)c(=O)[nH]1` [Ganciclovir] yielded an inhibition at 100 µM of 49.4%.
Work on `Nc1ccc(S(=O)(=O)Nc2ccccn2)cc1` [Sulfapyridine] yielded an inhibition at 100 µM of 10.7%.
Work on `CC(C)(C)NCC(O)c1cc(O)cc(O)c1` (stereo not shown) [Terbutaline Sulfate] yielded an inhibition at 100 µM of 0%.
For `NC[C@H](O)c1ccc(O)c(O)c1` [Noradrenaline bitartrate monohydrate], the inhibition at 100 µM was 18.9%.
For `Nc1ccccc1NC(=O)c1ccc(CNc2nccc(-c3cccnc3)n2)cc1` [Mocetinostat (MGCD0103)], the inhibition at 100 µM was 7.18%.
`C=C1CC[C@H](O)C/C1=C/C=C1\CCC[C@]2(C)[C@@H]([C@H](C)/C=C/[C@H](C)C(C)C)CC[C@@H]12` [Vitamin D2] was tested, and the inhibition at 100 µM was 0%.
`CC(=O)NCCCS(=O)(=O)O` [Acamprosate Calcium] showed an inhibition at 100 µM of 0%.
`COC(=O)[C@H]1[C@H]2C[C@@H]3c4[nH]c5cc(OC)ccc5c4CCN3C[C@H]2C[C@@H](OC(=O)c2cc(OC)c(OC)c(OC)c2)[C@@H]1OC` [Reserpine] showed an inhibition at 100 µM of 0%.
`CNC(=O)[C@@H](NC(=O)[C@H](CC(C)C)[C@H](O)C(=O)NO)C(C)(C)C` [Marimastat (BB-2516)] was tested, and the inhibition at 100 µM was 3.16%.
With `Cc1ccc2c(Cl)cc(Cl)c(O)c2n1` [Chlorquinaldol] the inhibition at 100 µM was 1.48%.
For `C[C@@H](NCCCc1cccc(C(F)(F)F)c1)c1cccc2ccccc12` [Cinacalcet HCl], the inhibition at 100 µM was 4.38%.
With `CC1(C)O[C@@H]2C[C@H]3[C@@H]4C[C@H](F)C5=CC(=O)C=C[C@]5(C)[C@@]4(F)[C@@H](O)C[C@]3(C)[C@]2(C(=O)CO)O1` [Fluocinolone Acetonide] the inhibition at 100 µM was 0%.
With `CC(C)(C)c1cc(C(C)(C)C)c(NC(=O)c2c[nH]c3ccccc3c2=O)cc1O` [Ivacaftor (VX-770)] the inhibition at 100 µM was 5.97%.
`Cc1ncc([N+](=O)[O-])n1CCO` [Metronidazole] was tested, and the inhibition at 100 µM was 16.9%.
`COc1cc2c(Oc3ccc(NC(=O)C4(C(=O)Nc5ccc(F)cc5)CC4)cc3F)ccnc2cc1OCCCN1CCOCC1` [Foretinib (GSK1363089)] showed an inhibition at 100 µM of 0%.
`CC(=O)NO` [Acetohydroxamic acid] showed an inhibition at 100 µM of 0%.
With `C=C1CC[C@@]2(O)[C@H]3Cc4ccc(O)c5c4[C@@]2(CCN3CC2CC2)[C@H]1O5` [Nalmefene HCl] the inhibition at 100 µM was 0%.
Work on `CO/N=C(\C(=O)N[C@@H]1C(=O)N2C(C(=O)OC(C)OC(C)=O)=C(COC(N)=O)CS[C@H]12)c1ccco1` (stereo partly shown) [Cefuroxime axetil] yielded an inhibition at 100 µM of 0%.
In the case of `CCOC(=O)[C@H](CCc1ccccc1)N[C@H]1CCc2ccccc2N(CC(=O)O)C1=O` [Benazepril HCl], the inhibition at 100 µM is reported as 0%.
`C[C@H](Cc1cc2c(c(C(N)=O)c1)N(CCCO)CC2)NCCOc1ccccc1OCC(F)(F)F` [Silodosin] gave an inhibition at 100 µM of 0%.
`C[C@H]1C[C@H]2[C@@H]3CCC4=CC(=O)C=C[C@]4(C)[C@H]3C(=O)C[C@]2(C)[C@@]1(O)C(=O)CO` [Meprednisone] showed an inhibition at 100 µM of 8.14%.
With `CC(C)C(=O)Oc1ccc(CO)cc1[C@H](CCN(C(C)C)C(C)C)c1ccccc1` [Fesoterodine Fumarate] the inhibition at 100 µM was 0%.
In the case of `COc1cc(C(=O)NCc2ccc(OCCN(C)C)cc2)cc(OC)c1OC` [Tribenzagan Hydrochloride], the inhibition at 100 µM is reported as 0%.
Molecule `C=C1c2cccc(O)c2C(=O)C2=C(O)[C@]3(O)C(=O)C(C(N)=O)=C(O)[C@@H](N(C)C)[C@@H]3[C@@H](O)[C@H]12` [Methacycline HCl] has an inhibition at 100 µM of 0%.
`CC1(C)S[C@@H]2[C@H](NC(=O)COc3ccccc3)C(=O)N2[C@H]1C(=O)O` [Penicillin V potassium salt] was tested, and the inhibition at 100 µM was 0%.
`O=c1[nH]c(=O)c2ccccc2o1` [Carsalam] was tested, and the inhibition at 100 µM was 0%.
`O=C1Cc2cc(CCN3CCN(c4nsc5ccccc45)CC3)c(Cl)cc2N1` [Ziprasidone HCl] gave an inhibition at 100 µM of 0%.
With `CC(COc1ccccc1Cc1ccccc1)N1CCCCC1` (stereo not shown) [Benproperine phosphate] the inhibition at 100 µM was 0%.
In the case of `CC[N+](CC)(CC)CCOc1cccc(OCC[N+](CC)(CC)CC)c1OCC[N+](CC)(CC)CC` [Gallamine Triethiodide], the inhibition at 100 µM is reported as 3.8%.
Work on `NS(=O)(=O)c1cc2c(cc1Cl)N=C(CSCc1ccccc1)NS2(=O)=O` [Benzthiazide] yielded an inhibition at 100 µM of 0%.
For `CCCCCCCCCCCCCCCCOP(=O)([O-])OCC[N+](C)(C)C` [Miltefosine], the inhibition at 100 µM was 0%.
For `NS(=O)(=O)c1cc2c(cc1Cl)N=CNS2(=O)=O` [Chlorothiazide], the inhibition at 100 µM was 0%.
For `Nc1nnc(-c2cccc(Cl)c2Cl)c(N)n1` [Lamotrigine], the inhibition at 100 µM was 12.3%.
